Converted amounts (≈) assume the structure as drawn.
How the values were obtained:
[1] = logD shake flask, 1-octanol/aqueous buffer; assay type: physicochemical; details: pH 7.4
Source text: The lipophilicity of a drug is an important physical property which may influence many biological and metabolic properties of a compound. The distribution coefficient between 1-octanol and aqueous buffer, Log DO/W, at pH 7.4, is the most commonly used measurement of the lipophilicity of a compound. The current method for measurement of Log DO/W is based on the traditional shake flask technique, but with the modification of measuring compounds in mixtures of ten at a time using UPLC with quantitative mass spectrometry (MS) as a method to measure the relative octanol and aqueous concentrations. […] An additional QC sample Caffeine, with low Log D, are used and randomly placed in all runs. The method has been thoroughly validated against the previous shake flask methodologies.

[2] = Human plasma protein binding, equilibrium dialysis (RED); assay type: in vitro ADME; details: dialysis for 18 hours
Protocol: Human Plasma Protein Binding
The automated equilibrium dialysis assay in human plasma uses the RED (Rapid Equilibrium Dialysis) Device and sample handling. The assay generally runs over two to three days including delivery of results. After dialysis for 18 hours, plasma and buffer samples are prepared for analysis by liquid chromatography and mass spectrometry. Samples are generally tested in singlicates and quantified by LC/MSMS by using a 7-point calibration curve in plasma. The compounds are pooled together in plasma pools up to 10 compounds. Three reference compounds are used in each run, Propranolol, Metoprolol and Warfarin. Warfarin is used as a control in each pool and Propranolol and Metoprolol are placed randomly in each run. An in-house Excel macro is used for preparation of files for the robot and the mass spectrometer and also used for the calculations of fraction unbound (fu %) in plasma.

[3] = Thermodynamic solubility, shake-flask; assay type: physicochemical; details: thermodynamic from solid; aqueous phosphate buffer pH 7.4, 24 hours at 25° C.
Protocol: The thermodynamic solubility of a research compound is measured under standard conditions. It is a shake-flask approach that uses 10 mM DMSO solutions which are supplied from the Compound Managements liquid store and is a high throughput method. The dried compounds are equilibrated in an aqueous phosphate buffer (pH 7.4) for 24 hours at 25° C., the portion with the dissolved compound is then separated from the remains. The solutions are analyzed and quantified using UPLC/MS/MS, QC-samples are incorporated in each assay-run to ensure the quality of the assay.

[4] = target: estrogen receptor (ERα) in CAMA-1 human breast cancer cell line (Homo sapiens (Human), UniProt P03372); assay: Western blotting assay, CAMA-1 cells; assay type: cell-based; details: 100 nM compound, 48 h; normalised to vehicle (0%) and 100 nM fulvestrant (100%)
Protocol: (§1) The ability of compounds to down-regulate estrogen receptor (ER) was assessed by western blotting using human breast cancer cell lines (MCF-7 and CAMA-1). Cells were plated into 12-well tissue culture-treated plates at 0.5×10^6/well in phenol red-free RPMI containing 2 mM L-glutamine and 5% (v/v) charcoal treated foetal calf serum (F6765, Sigma). Cells were incubated with compounds (100 nM) or vehicle control (0.1% DMSO) for 48 h at 37° C., 5% CO2 before washing once with PBS and lysing with 80 μl lysis buffer (25 mM Tris/HCl, 3 mM EDTA, 3 mM EGTA, 50 mM NaF, 2 mM sodium orthovanadate, 0.27 M sucrose, 10 mM β-glycerophosphate, 5 mM sodium pyrophosphate, 0.5% TritonX-100, pH 6.8) on ice.
(§2) Cells were scraped, sonicated and centrifuged prior to performing a protein assay (DC Bio-Rad Protein kit, 500-0116) and making samples to a protein concentration of 1-2 mg/m1 in lysis buffer containing 1× LDS Sample Buffer (NP0007, Invitrogen) and 1× NuPAGE sample reducing agent (NP0009, Invitrogen). Samples were boiled for 10 min at 95° C. and then frozen at −20° C. until ready for use.
(§3) 10-20 μg protein was loaded onto 26-well Criterion gels (BioRad 345-0034). Gels were run at 125 V for 1 hr 25 min in running buffer (24 mM Tris Base Sigma, 192 mM Glycine, 3.5 mM SDS, made up in distilled water). Gels were then transferred at 30V for 2 hr in transfer buffer (25 mM Tris, 192 mM Glycine, 20% (v/v) methanol, pH 8.3, made up in distilled water) onto nitrocellulose membrane. The blot was stained with Ponceau S (P7170, Sigma) and cut according to appropriate molecular weight markers.
(§4) Membranes were blocked for 1 hour at room temp in 5% Marvel (w/v) in phosphate-buffered saline containing 0.05% Tween™ 20 (PBS/Tween). Blots were then incubated with anti-ERα (SP1) rabbit monoclonal antibody (Thermofisher) diluted 1:1000 at 4° C. overnight (with gentle shaking) followed by several washes with PBS/Tween. Secondary anti-rabbit HRP antibody (7074, CST) diluted 1:2000 dilution was incubated for 2 h at room temperature (with gentle shaking) followed by several washes with PBS/Tween. All antibodies were made up in 5% Marvel (w/v) in PBS/Tween.
(§5) The immunoblots were developed using Pierce WestDura chemiluminescent reagents (Thermo Scientific 34076) and developed/quantified on the G-box using Syngene software. Down-regulation of the ERα receptor was normalised to the vehicle control (0% down-regulation) and the 100 nM fulvestrant control (100% down-regulation) run within the same gel.

[5] = target: ERα receptor in MCF-7 human ductal carcinoma breast cell line (Homo sapiens (Human), UniProt P03372); assay: MCF-7 ER down regulation assay (immuno-fluorescence); assay type: cell-based; details: MCF-7 cells, 18-22 hours incubation; read-out: ER down regulation IC50 value
[6] = target: estrogen receptor (ERα) in MCF-7 human breast cancer cell line (Homo sapiens (Human), UniProt P03372); assay: Western blotting assay, MCF-7 cells; assay type: cell-based; details: 100 nM compound, 48 h; normalised to vehicle (0%) and 100 nM fulvestrant (100%)
Protocol: as §1, §2, §3, §4, §5

ERα receptor = ERα receptor (Homo sapiens (Human), UniProt P03372); details: 500mg monthly dose; cited from earlier work
ERα receptor, sequence (P03372 whole entry): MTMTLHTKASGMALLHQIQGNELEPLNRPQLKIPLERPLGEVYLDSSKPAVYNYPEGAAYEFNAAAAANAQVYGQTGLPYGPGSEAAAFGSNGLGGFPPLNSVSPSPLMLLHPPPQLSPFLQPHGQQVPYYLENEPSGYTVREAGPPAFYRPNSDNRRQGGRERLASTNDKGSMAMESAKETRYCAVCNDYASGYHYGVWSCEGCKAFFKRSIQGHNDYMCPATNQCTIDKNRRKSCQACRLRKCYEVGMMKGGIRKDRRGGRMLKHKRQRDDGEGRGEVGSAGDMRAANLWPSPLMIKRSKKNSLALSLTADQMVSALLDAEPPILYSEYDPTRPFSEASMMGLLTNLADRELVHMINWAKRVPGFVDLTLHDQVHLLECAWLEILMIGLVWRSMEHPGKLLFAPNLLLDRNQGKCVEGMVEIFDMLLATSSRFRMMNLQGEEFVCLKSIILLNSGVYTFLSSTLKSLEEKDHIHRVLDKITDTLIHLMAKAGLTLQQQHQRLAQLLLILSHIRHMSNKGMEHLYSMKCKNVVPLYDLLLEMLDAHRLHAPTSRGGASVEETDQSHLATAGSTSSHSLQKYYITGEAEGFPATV

estrogen receptor (ERα) in MCF-7 human breast cancer cell line, sequence (P03372 whole entry): as above
estrogen receptor (ERα) in CAMA-1 human breast cancer cell line, sequence (P03372 whole entry): as above
ERα receptor in MCF-7 human ductal carcinoma breast cell line, sequence (P03372 whole entry): as above

| SMILES | logD [1] | Human plasma protein binding (% free) [2] | solubility at 24 h [3] | CAMA1 Western % ER deg vs Fv [4] | DC50 [5] | MCF7 Western % ER deg vs Fv [6] | turnover of the receptor in patient samples (ERα receptor) |
| --- | --- | --- | --- | --- | --- | --- | --- |
| COCC(F)(F)CN1[C@H](c2ccc(OCCN3CC(CF)C3)cn2)c2ccc3[nH]ncc3c2C[C@H]1C [Example 10, (6S,8R)-7-(2,2-difluoro-3-methoxypropyl)-6-(5-(2-(3-(fluoromethyl)azetidin-1-yl)ethoxy)pyridin-2-yl)-8-methyl-6,7,8,9-tetrahydro-3H-pyrazolo[4,3-f]isoquinoline] | 2.4 | 27 % free | 811 µM (≈ 408 µg/mL) | 66% | 0.51 nM | 87% | – |
| C[C@]12CC[C@@H]3c4ccc(O)cc4C[C@@H](CCCCCCCCC[S+]([O-])CCCC(F)(F)C(F)(F)F)[C@H]3[C@@H]1CC[C@@H]2O (stereo partly shown) [Fulvestrant, fulvestrant] | – | – | – | – | – | – | less than 50% |
| COc1cc(OCCN2CC(CF)C2)ccc1[C@@H]1c2ccc3[nH]ncc3c2C[C@@H](C)N1CC(F)F [Example 7, (6S,8R)-7-(2,2-difluoroethyl)-6-(4-(2-(3-(fluoromethyl)azetidin-1-yl)ethoxy)-2-methoxyphenyl)-8-methyl-6,7,8,9-tetrahydro-3H-pyrazolo[4,3-f]isoquinoline] | 3.4 | 11 % free | 364 µM (≈ 178 µg/mL) | 95% | 0.085 nM | 100% | – |

Source: patent US10125135B2, “Chemical compounds” (AstraZeneca AB, priority 2016, dated 2018)
